Data as given in patent publication US9217012B2, “Inhibitors of protein tyrosine phosphatases” (Indiana University Research and Technology Corporation, priority 2009, dated 2015).
Where “and” joins values, the source holds several entries; their conditions need not be identical. Identical values can stand only once. Entries after “also recorded” stand apart in the source; their conditions may differ.

Tests used:
[1] = tested on: EGFR phosphorylation in PTP1B−/− mouse embryo fibroblast cells; experiment: Effect of TC-PTP inhibitor on EGFR phosphorylation (anti-pTyr immunoblot); type: cell-based; conditions: 2 h; for increase in EGFR phosphorylation compared to DMSO: EGF 2 ng/ml 10 min
Method: To determine the cellular efficacy of 10, its effect on tyrosine phosphorylation of EGFR, a known substrate of TC-PTP (Tiganis et al., 1998; Klingler-Hoffmann et al., 2001; Mattila et al., 2005) was assessed using an antibody against pTyr. The cells were incubated with 10 for 2 hr and subsequently treated either with or without EGF (2 ng/ml) for 10 min.
PTP1B^−/− cells were treated with TC-PTP inhibitor at indicated concentration for 2 h before EGF treatment. After EGF treatment (2 ng/ml) for 10 min, cells were lysed in 10 mM HEPES, pH 7.4, 150 mM NaCl, 10% Glycerol, 10 mM sodium phosphate, 10 mM sodium fluoride, 1 mM sodium pervanadate, 1 mM benzamidine, 1% Triton X-100, 10 μg/ml leupeptin, and 5 μg/ml aprotinin. Cell lysates were cleared by centrifugation at 15,000 rpm for 10 min. The lysate protein concentration was estimated using the BCA protein assay kit (PIERCE). To detect EGFR phosphorylation levels, 10 μg of anti-EGFR antibody (CELL SIGNALING, #2232) was added to 1 mg of cell lysate and incubated at 4° C. for 2 h. […] of protein A/G-agarose beads were then added and incubated for another 2 h. After extensive washing, the protein complex was boiled with sample buffer, separated by SDS-PAGE, transferred electrophoretically to PVDF membrane, and immunoblotted with anti-pTyr antibodies (MILLIPORE, #05-1050) followed by incubation with horseradish peroxidase-conjugated secondary antibodies. The blots were developed by the enhanced chemiluminescence technique (ECL kit, AMERSHAM BIOSCIENCES).
PTP1B^−/− mouse embryo fibroblast cells were treated with TC-PTP inhibitor at the indicated concentration for 2 h prior to EGF treatment. After EGF treatment (2 ng/mL) for 10 min, cells were lysed in 10 mM HNEPES, pH 7.4, […], 10% Glycerol, 10 mM sodium phosphate, 10 mM sodium fluoride, 1 mM sodium pervanadate, 1 mM benzamidine, 1% Triton X-100, 10 μg/mL leupeptin, and 5 μg/mL aprotinin. Cell lysates were cleared by centrifugation at 15 000 rpm for 10 min. The lysate protein concentration was estimated using the BAC protein assay kit (Pierce). To detect EGFR phosphorylation levels, 10 μg of anti-EGFR antibody (Cell Signaling, #2232) were added to 1 mg of cell lysate and incubated at 4° C. for 2 h. 20 μL of protein A/G-agarose beads were then added and incubated for another 2 hr. After extensive washing, the protein complex was boiled with sample buffer, separated by SDS-PAGE, transferred electrophoretically to a PVDF membrane, and immunoblotted with anti-pTyr antibodies (Millipore, #5-1050) followed by incubation with horseradish peroxidase conjugalated secondary antibodies. The blots were developed by enhanced chemiluminescence technique (ECL kit, Amersham Biosciences).
The cellular efficacy of compound 10 was assessed by examining its effect on tyrosine phosphorylation of EGFR, a known substrate of TC-PTP. Referring now to FIG. 2 B. PTP1B^−/− mouse embryo filbroblast cells were incubated with compound 10 at various concentrations for 2 h and subsequently treated either with or without EGF (2 ng/mL) for 10 min Inhibition of TC-PTP is expected to enhance endrogenous levels of phosphorylated EGFR. […] Remarkably, the phosphorylated form of EGFR is increased nearly 2-fold even at an inhibitor concentration of 5 nM (1.2×Ki).

[2] = tested on: CD4 T-cells recovered from patients with type 1 diabetes; experiment: pSTAT5 response to IL-2 in CD4 T-cells from type 1 diabetes patients; type: cell-based, human; conditions: cells with elevated TC-PTP pre-treated with compound
Method: An increase in expression of TC-PTP type 1 diabetic subject correlates with a decrease in STAT5 activation (Long et al., 2010). The protein expression levels of STAT5, JAK1, JAK3, and the negative regulator, TC-PTP, and CD4 T-cells of control and type 1 diabetic subjects were measured. […] No differences were found in STAT5, JAK3, or JAK1 protein expression levels between cells from the control group and the group diagnosed with type 1 diabetes. In contrast, TC-PTP expression was uniform in cells recovered from the control group but was increased overall in cells collected from patients with type 1 diabetes. […] This increased expression of TC-PTP correlated with decreased levels of pSTAT5 levels measured after exposure to IL-2.

Cdc14A = Cdc14A (Homo sapiens (Human), UniProt Q9UNH5); experiment: PTP selectivity panel (pNPP), Cdc14A; type: biochemical; conditions: Table 3
Method: (§1) PTP activity was assayed using p-nitrophenyl phosphate (pNPP) as a substrate in DMG buffer (50 mM DMG, pH 7.0, 1 mM EDTA, 150 mM NaCl, 2 mM DTT, 0.1 mg/mL BSA) at 25° C. The assays were performed in 96-well plates. Normally, to determine the IC50 values, the reaction was initiated by the addition of enzyme (final concentration of 10 nM) to a reaction mixture (0.2 mL) containing 2 mM (Km for the substrate) pNPP with various concentrations of inhibitors. The reaction rate was measured using a Spectra Max Plus 384 Microplate Spectrophotometer (Molecular Devices). For compound 10, the final TC-PTP concentration was 0.04 nM. The reactions were incubated at room temperature for 30 min and quenched with 5N NaOH. The absorbance at 405 nm was read on the SpectraMax Plus 384 Microplate Spectrophotometer. For the reversibility test, the enzyme was incubated with the inhibitor at room temperature for 30 min before pNPP was added to initiate the reaction. The reaction was then incubated at room temperature for 30 min and quenched and read. […] To determine the mode of inhibition, the reactions were initiated by the additional enzyme (final concentration for TC-PTP was 0.4 nM and for PTP was 2 nM) to the reaction mixtures (0.2 mL) containing various concentrations of pNPP with different concentrations of the inhibitor. Data were fitted using SigmaPlot Enzyme Kinetics Module (Systat Software, Inc.)

LAR = LAR (Homo sapiens (Human), UniProt P10586); experiment: PTP selectivity panel (pNPP), LAR; type: biochemical; conditions: Table 3
Method: as §1

PTPα = PTPα (Homo sapiens (Human), UniProt P18433); experiment: PTP selectivity panel (pNPP), PTPα; type: biochemical; conditions: Table 3
Method: as §1

Sequence of Cdc14A (Q9UNH5 whole entry, species assumed): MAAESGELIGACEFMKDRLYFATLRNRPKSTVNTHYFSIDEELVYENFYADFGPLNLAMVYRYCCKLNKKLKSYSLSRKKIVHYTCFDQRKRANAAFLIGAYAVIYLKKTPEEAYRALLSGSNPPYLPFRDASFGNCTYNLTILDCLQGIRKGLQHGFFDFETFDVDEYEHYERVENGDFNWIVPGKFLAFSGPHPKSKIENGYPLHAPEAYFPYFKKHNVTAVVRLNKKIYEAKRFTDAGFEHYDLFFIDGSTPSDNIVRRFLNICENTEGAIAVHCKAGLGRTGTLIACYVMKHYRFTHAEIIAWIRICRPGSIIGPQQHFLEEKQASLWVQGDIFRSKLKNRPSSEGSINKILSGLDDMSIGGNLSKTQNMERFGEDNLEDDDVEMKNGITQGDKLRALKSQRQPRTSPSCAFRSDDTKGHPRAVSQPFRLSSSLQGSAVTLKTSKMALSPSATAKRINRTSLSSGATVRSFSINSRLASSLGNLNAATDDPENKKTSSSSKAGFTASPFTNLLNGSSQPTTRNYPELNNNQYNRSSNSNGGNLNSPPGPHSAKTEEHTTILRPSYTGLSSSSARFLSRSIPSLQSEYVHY
Sequence of PTPα (P18433 20-802): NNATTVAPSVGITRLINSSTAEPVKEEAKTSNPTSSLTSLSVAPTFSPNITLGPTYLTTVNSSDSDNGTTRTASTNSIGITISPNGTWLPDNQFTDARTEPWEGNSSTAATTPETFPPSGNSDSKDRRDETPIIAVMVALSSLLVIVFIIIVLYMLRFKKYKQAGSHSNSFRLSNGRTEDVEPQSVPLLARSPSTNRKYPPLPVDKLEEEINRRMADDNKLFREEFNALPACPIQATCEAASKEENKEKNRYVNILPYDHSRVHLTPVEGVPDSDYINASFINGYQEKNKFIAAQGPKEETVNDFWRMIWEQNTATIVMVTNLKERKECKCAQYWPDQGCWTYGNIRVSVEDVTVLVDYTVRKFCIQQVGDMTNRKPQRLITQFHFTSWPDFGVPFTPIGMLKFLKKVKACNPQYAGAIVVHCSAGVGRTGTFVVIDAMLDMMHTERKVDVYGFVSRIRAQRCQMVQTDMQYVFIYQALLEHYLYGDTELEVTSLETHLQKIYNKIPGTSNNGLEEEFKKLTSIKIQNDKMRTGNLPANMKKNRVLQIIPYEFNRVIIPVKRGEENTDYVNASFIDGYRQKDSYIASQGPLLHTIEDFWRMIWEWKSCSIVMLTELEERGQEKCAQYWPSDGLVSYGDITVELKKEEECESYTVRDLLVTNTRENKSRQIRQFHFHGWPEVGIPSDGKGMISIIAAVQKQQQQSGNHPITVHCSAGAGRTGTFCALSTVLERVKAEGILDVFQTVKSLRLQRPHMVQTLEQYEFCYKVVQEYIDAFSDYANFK
Sequence of LAR (P10586 whole entry, looked up, species assumed): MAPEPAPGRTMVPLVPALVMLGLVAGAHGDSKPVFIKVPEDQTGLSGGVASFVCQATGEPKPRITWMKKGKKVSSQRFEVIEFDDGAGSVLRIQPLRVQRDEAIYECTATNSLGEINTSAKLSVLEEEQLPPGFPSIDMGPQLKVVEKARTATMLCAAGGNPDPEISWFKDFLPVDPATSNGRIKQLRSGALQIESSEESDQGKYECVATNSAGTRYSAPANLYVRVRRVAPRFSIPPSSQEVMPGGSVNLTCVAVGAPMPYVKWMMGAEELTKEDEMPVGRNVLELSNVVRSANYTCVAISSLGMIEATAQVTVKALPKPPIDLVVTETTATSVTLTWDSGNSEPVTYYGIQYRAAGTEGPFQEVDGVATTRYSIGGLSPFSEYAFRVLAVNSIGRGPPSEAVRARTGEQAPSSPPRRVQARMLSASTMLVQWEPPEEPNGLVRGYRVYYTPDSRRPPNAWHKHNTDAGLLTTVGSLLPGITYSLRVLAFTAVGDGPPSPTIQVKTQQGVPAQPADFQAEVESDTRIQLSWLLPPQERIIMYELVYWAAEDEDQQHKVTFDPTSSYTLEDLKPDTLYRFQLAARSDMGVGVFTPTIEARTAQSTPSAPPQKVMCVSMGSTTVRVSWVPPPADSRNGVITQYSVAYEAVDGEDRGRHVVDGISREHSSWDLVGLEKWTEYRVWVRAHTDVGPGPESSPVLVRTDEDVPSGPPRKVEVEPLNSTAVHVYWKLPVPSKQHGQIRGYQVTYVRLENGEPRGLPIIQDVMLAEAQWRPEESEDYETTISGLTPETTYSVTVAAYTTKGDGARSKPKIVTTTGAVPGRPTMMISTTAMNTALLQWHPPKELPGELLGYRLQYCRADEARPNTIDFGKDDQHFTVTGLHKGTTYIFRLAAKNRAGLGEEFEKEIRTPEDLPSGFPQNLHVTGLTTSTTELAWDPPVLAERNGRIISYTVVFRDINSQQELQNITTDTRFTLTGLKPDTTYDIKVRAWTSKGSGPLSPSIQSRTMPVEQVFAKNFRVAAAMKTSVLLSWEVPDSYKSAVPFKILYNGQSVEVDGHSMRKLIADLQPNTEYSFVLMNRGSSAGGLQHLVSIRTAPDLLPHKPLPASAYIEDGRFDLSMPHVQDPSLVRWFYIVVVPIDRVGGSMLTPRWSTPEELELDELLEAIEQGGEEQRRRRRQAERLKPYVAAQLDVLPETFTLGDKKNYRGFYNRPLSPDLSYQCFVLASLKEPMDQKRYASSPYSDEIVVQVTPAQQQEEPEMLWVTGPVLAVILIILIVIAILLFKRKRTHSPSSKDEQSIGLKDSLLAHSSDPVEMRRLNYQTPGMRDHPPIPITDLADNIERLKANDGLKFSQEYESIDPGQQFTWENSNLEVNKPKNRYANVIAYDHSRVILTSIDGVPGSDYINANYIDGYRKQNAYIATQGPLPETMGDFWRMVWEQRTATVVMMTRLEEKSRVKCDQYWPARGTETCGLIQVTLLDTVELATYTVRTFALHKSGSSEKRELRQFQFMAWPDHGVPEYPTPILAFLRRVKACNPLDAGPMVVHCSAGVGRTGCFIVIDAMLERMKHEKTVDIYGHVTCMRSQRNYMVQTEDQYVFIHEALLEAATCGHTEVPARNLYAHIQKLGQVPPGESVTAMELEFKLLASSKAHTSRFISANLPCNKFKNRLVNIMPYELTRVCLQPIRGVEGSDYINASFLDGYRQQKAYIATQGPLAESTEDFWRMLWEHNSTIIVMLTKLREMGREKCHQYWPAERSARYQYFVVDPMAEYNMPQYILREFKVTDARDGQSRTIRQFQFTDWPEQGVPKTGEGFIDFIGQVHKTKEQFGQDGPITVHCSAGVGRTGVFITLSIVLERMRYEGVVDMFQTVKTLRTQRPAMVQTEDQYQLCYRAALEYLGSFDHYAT

CCc1ccc(C(=O)NCCCCC(NC(=O)C(Cc2ccc(C(F)(F)P(=O)(O)O)cc2)NC(=O)C(Cc2ccccc2)NC(=O)COC2CC(C)CCC2C(C)C)C(N)=O)cc1 (stereo not drawn) [Compound 10]
effect on EGFR phosphorylation, dose dependence ([1]; 0-50 nM): enhanced EGFR phosphorylaltion in a dose-dependent fashion; also recorded: augmented EGFR phosphorylation in a dose dependent manner | increase in EGFR phosphorylation compared to DMSO ([1]; 5 nM): ~2 fold and 1.9 fold | increase in EGFR phosphorylation compared to DMSO ([1]; 10 nM): 3.4 fold | increase in EGFR phosphorylation compared to DMSO ([1]; 20 nM): 3.9 fold | increase in EGFR phosphorylation compared to DMSO ([1]; 50 nM): 5.0 fold | rescue of decreased response to IL-2 (pSTAT5) [2]: rescued in a concentration dependent manner | Ki (Cdc14A): > 1 µM | Ki (LAR): > 1 µM | Ki (PTPα): > 1 µM
